In patent US10201564B2, “Methods of using inhaled nitric oxide gas for treatment of acute respiratory distress syndrome in children” (Mallinckrodt Hospital Products IP Limited, priority 2014, dated 2019):

Tested on: pediatric subjects with acute hypoxemic respiratory failure (AHRF)
Assay: Pediatric AHRF study: adverse events, serious adverse events, deaths, discontinuations
Type: in vivo, human
Settings: 5 ppm
Experimental: This was a prospective, multicenter, randomized, double-blind, placebo-controlled, parallel-group study of the safety and efficacy of inhaled nitric oxide in pediatric subjects with acute hypoxemic respiratory failure (AHRF). The subjects were randomized to receive either 5 ppm inhaled nitric oxide or placebo.
Nitric Oxide for inhalation at 5 ppm was administered continuously into the inspiratory limb of the ventilator circuit in mechanically ventilated subjects using a blinded version of the INOvent® delivery system.
Subjects received 100% treatment gas (nitric oxide 5 ppm or placebo [nitrogen gas]) until Day 28 or extubation, whichever occurred first.
This was a prospective, multicenter, randomized, double-blind, placebo-controlled, Phase III study to assess the effects of nitric oxide for inhalation in the treatment of acute hypoxic respiratory failure (AHRF) in pediatric subjects. The study population consisted of male and female pediatric subjects, aged 44 weeks postconceptional age to 16 years age, who were admitted to the pediatric intensive care unit (PICU) and who required intubation because of AHRF. The inclusion/exclusion criteria are described in the Patients section below.
Standardized ventilatory management and weaning procedures were used. Ventilatory management was used based on an “open lung approach” using positive end-expiratory pressure (PEEP) to increase lung volume and limiting tidal volumes to reduce plateau pressures. Subjects received nitric oxide for inhalation at 5 ppm or placebo (100% Grade 5 nitrogen gas) into the inspiratory limb of the ventilator circuit using a blinded version of the INOvent® delivery system. The subjects were treated until Day 28 or extubation, whichever occurred first. Subjects were assessed daily using a spontaneous breathing trial, according to the institution's standard of care. Arterial blood gases (ABG), ventilator settings, methemoglobin, oxygenation index, systolic blood pressure, diastolic blood pressure, Pediatric Risk of Mortality (PRISM) III score, and subject positioning (prone or supine) were performed/recorded at specified times during the study. Selected centers also performed plasma cytokine assays, bronchoalveolar lavage fluid (BALF) assays, and a 6-month follow-up assessment.

[1] = AE in which death was the outcome
[2] = AE not suspected related to study treatment
[3] = AE suspected related to study treatment
[4] = AE with death as outcome, not suspected related to treatment

[N]=O [Nitric Oxide, nitric oxide]
2 (7.7%) n (%): Agitation [2] | Bacteremia [2] | Deep vein thrombosis [2] | Hypernatremia [2] | Hypokalemia [2] | Oxygen saturation decreased [2] | Pneumothorax [2] | Tracheitis [2] | Unevaluable event [2]
61.5%: subjects reporting AEs (16 of 26 subjects, placebo 72.4%)
0 (0.0) n (%): Brain edema [1] | Cardiac arrest [1] | Diabetic ketoacidosis [1] | Hemolytic anemia [1] | Hepatic failure [1] | Intracranial pressure increased [1] | Multi-organ failure [1] | Pancreatitis [1] | Pneumonia, aspergillus [1] | Pulmonary hemorrhage [1] | Renal failure [1] | Renal impairment [1] | Sepsis [1] | Abdominal distension [2] | Bacteria, sputum [2] | Bladder distension [2] | Brain edema [2] | C-reactive protein increased [2] | Cardiac arrest [2] | Cerebral artery occlusion [2] | Device failure [2] | Diabetic ketoacidosis [2] | Diarrhea [2] | Disseminated intravascular coagulation [2] | Empyema [2] | Feeding disorder [2] | Fungus culture positive [2] | Fungus urine test positive [2] | Gastrointestinal hemorrhage [2] | Generalized edema [2] | Hematuria [2] | Hemolytic anemia [2] | Hemopneumothorax [2] | Hemorrhage [2] | Hemothorax [2] | Hepatic failure [2] | Hyperammonemia [2] | Hypercapnia [2] | Hyperlipidemia [2] | Hypertension [2] | Hypochloremia [2] | Hypothermia [2] | Hypoxia [2] | Intracranial pressure increased [2] | Labile blood pressure [2] | Lung infection, pseudomonal [2] | Medical device removal [2] | Metabolic acidosis [2] | Multi-organ failure [2] | Ocular icterus [2] | Oliguria [2] | Pancreatitis [2] | Pleural effusion [2] | Pneumomediastinum [2] | Pneumonia, aspergillus [2] | Pruritus [2] | Pulmonary hemorrhage [2] | Pulmonary hypertension [2] | Pyrexia [2] | Renal failure, acute [2] | Renal impairment [2] | Respiratory acidosis [2] | Sepsis [2] | Skin injury [2] | Subdural hematoma [2] | Thrombocytopenia [2] | White blood cell count increased [2] | Abdominal distension [3] | Acidosis [3] | Agitation [3] | Anemia [3] | Apnea [3] | Arrhythmia [3] | Ascites [3] | Bacteremia [3] | Bacteria, blood [3] | Bacteria, sputum [3] | Bladder distension [3] | Bradycardia [3] | Brain edema [3] | Bronchoalveolar lavage [3] | C-reactive protein increased [3] | Cardiac arrest [3] | Cerebral artery occlusion [3] | Chest tube insertion [3] | Deep vein thrombosis [3] | Device failure [3] | Diabetic ketoacidosis [3] | Diarrhea [3] | Disseminated intravascular coagulation [3] | Empyema [3] | Feeding disorder [3] | Fungemia [3] | Fungus culture positive [3] | Fungus urine test positive [3] | Gastrointestinal hemorrhage [3] | Generalized edema [3] | Grangrene [3] | Hematuria [3] | Hemoglobinemia [3] | Hemolytic anemia [3] | Hemopneumothorax [3] | Hemorrhage [3] | Hemothorax [3] | Hepatic failure [3] | Hepatosplenomegaly [3] | Hyperammonemia [3] | Hypercalcemia [3] | Hypercapnia [3] | Hyperchloremia [3] | Hyperglycemia [3] | Hyperkalemia [3] | Hyperlipidemia [3] | Hypernatremia [3] | Hypertension [3] | Hypocalcemia [3] | Hypochloremia [3] | Hypokalemia [3] | Hypotension [3] | Hypothermia [3] | Hypoxia [3] | Intracranial pressure increased [3] | Labile blood pressure [3] | Leukocytosis [3] | Lung infection, pseudomonal [3] | Medical device removal [3] | Metabolic acidosis [3] | Metabolic alkalosis [3] | Multi-organ failure [3] | Ocular icterus [3] | Oliguria [3] | Oxygen saturation decreased [3] | Pancreatitis [3] | Pleural effusion [3] | Pneumomediastinum [3] | Pneumonia [3] | Pneumonia, aspergillus [3] | Pneumonia, staphylococcal [3] | Pneumothorax [3] | Pruritus [3] | Pseudomonal sepsis [3] | Pulmonary hemorrhage [3] | Pulmonary hypertension [3] | Pyrexia [3] | Renal failure [3] | Renal failure, acute [3] | Renal impairment [3] | Respiratory acidosis [3] | Respiratory failure [3] | Sepsis [3] | Skin injury [3] | Subdural hematoma [3] | Thrombocythemia [3] | Thrombocytopenia [3] | Tracheitis [3] | Unevaluable event [3] | Urinary tract infection [3] | Urinary tract infection, fungal [3] | Urine output decreased [3] | White blood cell count increased [3] | Brain edema [4] | Cardiac arrest [4] | Diabetic ketoacidosis [4] | Hemolytic anemia [4]
3 (11.5%) n (%): Bradycardia [2] | Hypotension [2]
7.7%: subjects with severe AEs (2 subjects, placebo 34.5%)
1: subjects who died during the follow-up period after treatment
bradycardia and hypotension: most frequently reported AEs
2: subjects who died during treatment
3.9%: frequency of treatment discontinuation due to AEs (1 of 26 subjects, placebo 6.9%) | subjects with serious AEs (SAEs) (1 of 26 subjects, placebo 27.6%)
1 (3.8%) n (%): Bradycardia [1] | Hypotension [1] | Acidosis [2] | Anemia [2] | Apnea [2] | Arrhythmia [2] | Ascites [2] | Bacteria, blood [2] | Bronchoalveolar lavage [2] | Chest tube insertion [2] | Fungemia [2] | Grangrene [2] | Hemoglobinemia [2] | Hepatosplenomegaly [2] | Hypercalcemia [2] | Hyperchloremia [2] | Hyperglycemia [2] | Hyperkalemia [2] | Hypocalcemia [2] | Leukocytosis [2] | Metabolic alkalosis [2] | Pneumonia [2] | Pneumonia, staphylococcal [2] | Pseudomonal sepsis [2] | Renal failure [2] | Respiratory failure [2] | Thrombocythemia [2] | Urinary tract infection [2] | Urinary tract infection, fungal [2] | Urine output decreased [2] | Bradycardia [4]
